This note sets out measurements from paper PMC6978800, “FAMIN Is a Multifunctional Purine Enzyme Enabling the Purine Nucleotide Cycle” (Cell, 2020).

Broadly, the Km is the concentration of substrate that gives half-maximal velocity.

Assay [1] deals with T1, YlmD (Geobacillus stearothermophilus, UniProt P84138).
T1 construct: gene pgeF; synthetic gene in pPSG-IBA105 (Strep-tag); expressed in E. coli BL21(DE3); StrepTrap and size exclusion
T1 sequence (P84138 1-274): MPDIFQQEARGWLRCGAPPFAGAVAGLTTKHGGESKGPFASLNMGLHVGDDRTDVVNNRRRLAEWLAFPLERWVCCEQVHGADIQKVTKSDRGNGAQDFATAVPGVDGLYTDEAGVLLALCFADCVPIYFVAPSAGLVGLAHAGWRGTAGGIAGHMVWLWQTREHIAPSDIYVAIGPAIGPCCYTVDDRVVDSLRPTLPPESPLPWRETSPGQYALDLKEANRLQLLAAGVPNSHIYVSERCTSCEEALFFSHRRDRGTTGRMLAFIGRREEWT
The assay can be described thus: LC-MS of inosine and adenine. It is filed as biochemical. The note with it: 10 μM substrate, PBS pH 7.4, 37°C, 1 h.

Assay [2] deals with T2, YfiH (Escherichia coli, UniProt P33644).
T2 construct: gene pgeF; synthetic gene in pPSG-IBA105 (Strep-tag); expressed in E. coli BL21(DE3); StrepTrap and size exclusion
T2 sequence (P33644 1-243): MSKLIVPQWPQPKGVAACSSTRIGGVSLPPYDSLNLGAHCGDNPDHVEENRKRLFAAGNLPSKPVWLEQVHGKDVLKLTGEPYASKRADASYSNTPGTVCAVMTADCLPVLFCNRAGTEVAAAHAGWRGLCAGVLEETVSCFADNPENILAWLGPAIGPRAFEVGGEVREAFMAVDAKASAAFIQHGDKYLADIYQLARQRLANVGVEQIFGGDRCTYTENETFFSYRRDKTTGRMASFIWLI
The assay can be described thus: LC-MS of inosine and adenine. The note with it: 10 μM substrate, PBS pH 7.4, 37°C, 1 h. It is filed as biochemical.

Assay [3] has as its target T3, FAMIN^254I (Homo sapiens, UniProt Q8IV20).
T3 construct: gene LACC1; full-length, N-terminal Twin-Strep-tag with TEV site, tag cut (kept in select experiments); expressed in HEK293T; monomer; 430 residues
T3 sequence (Q8IV20 1-430): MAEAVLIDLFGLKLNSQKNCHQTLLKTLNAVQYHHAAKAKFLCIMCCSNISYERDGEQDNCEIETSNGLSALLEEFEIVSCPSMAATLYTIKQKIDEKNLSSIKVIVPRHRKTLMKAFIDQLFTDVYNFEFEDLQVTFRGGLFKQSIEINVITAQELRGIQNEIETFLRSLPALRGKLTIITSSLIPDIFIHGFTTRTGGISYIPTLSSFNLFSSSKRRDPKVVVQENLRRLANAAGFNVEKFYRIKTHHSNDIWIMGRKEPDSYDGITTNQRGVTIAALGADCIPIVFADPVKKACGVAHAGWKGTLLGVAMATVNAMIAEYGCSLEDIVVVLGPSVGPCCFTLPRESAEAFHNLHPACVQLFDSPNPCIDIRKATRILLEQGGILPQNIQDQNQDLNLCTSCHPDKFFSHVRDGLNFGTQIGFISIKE
The assay can be described thus: LC-MS product quantitation, Michaelis-Menten. It is filed as biochemical. The note with it: PBS pH 7.4, 37°C; phosphate as co-substrate of phosphorolysis; read-out: apparent Km.

The target of assay [4] is T1, YlmD. The assay can be described thus: X-ray crystal structure, soaked crystals, […] Å. The class given is binding. The note with it: soak with 18.7 mM inosine, 0.5 mM sodium phosphate, 0.5 mM zinc sulfate, pH 7.5; active site, ribose partially hydrolyzed or disordered.
The target of assay [5] is T1, YlmD. The assay can be described thus: LC-MS of adenine. The note with it: 10 μM substrate, PBS pH 7.4, 37°C, 1 h. The class given is biochemical.

Regarding `Nc1ncnc2c1ncn2[C@@H]1O[C@H](CO)[C@@H](O)[C@H]1O` [Adenosine], the “LC-MS of inosine and adenine” value is “YlmD and YfiH metabolized adenosine to inosine and adenine, MTA to adenine” in assay [1]; “YlmD and YfiH metabolized adenosine to inosine and adenine, MTA to adenine” in assay [2]. Moreover, in assay [3], the Michaelis constant (Km) stood at 36 µM.
Regarding `O=c1[nH]cnc2c1ncn2[C@@H]1O[C@H](CO)[C@@H](O)[C@H]1O` [Inosine], the “X-ray crystal structure, soaked crystals, 1.2 Å” value in assay [4] is listed as “unambiguously identifying the purine ring of a bound inosine molecule”. Moreover, the Km in assay [3] stood at 41 µM.
In the case of `CSC[C@H]1O[C@@H](n2cnc3c(N)ncnc32)[C@H](O)[C@@H]1O` [S-methyl-5′-thioadenosine], the LC-MS of adenine result in assay [5] is “YlmD and YfiH metabolized adenosine to inosine and adenine, MTA to adenine”. The Km in assay [3] amounted to 1 µM.
